Data taken from the NIST ThermoML archive (doi:10.1021/je060139a).
Numbers after ± are expanded uncertainties.

Experiment: refractive index (Na D-line) (dimensionless); xn = mol fraction of the nth substance listed
Details: 100.5 kPa, Liquid, Standard Abbe refractometry

COC(=O)c1ccccc1 [methyl benzoate] + CCO
refractive index (288.15 K, x1 = 0.05): 1.38013 ± 0.00031
refractive index (288.15 K, x1 = 0.1): 1.39497 ± 0.00032
refractive index (288.15 K, x1 = 0.15): 1.40825 ± 0.00032
refractive index (288.15 K, x1 = 0.2): 1.41993 ± 0.00032
refractive index (288.15 K, x1 = 0.25): 1.43052 ± 0.00032
refractive index (288.15 K, x1 = 0.3): 1.44018 ± 0.00032
refractive index (288.15 K, x1 = 0.35): 1.44896 ± 0.00033
refractive index (288.15 K, x1 = 0.4): 1.45703 ± 0.00033
refractive index (288.15 K, x1 = 0.45): 1.4645 ± 0.00033
refractive index (288.15 K, x1 = 0.5): 1.47142 ± 0.00033
refractive index (288.15 K, x1 = 0.55): 1.47785 ± 0.00033
refractive index (288.15 K, x1 = 0.6): 1.48384 ± 0.00033
refractive index (288.15 K, x1 = 0.65): 1.48938 ± 0.00033
refractive index (288.15 K, x1 = 0.7): 1.49451 ± 0.00034
refractive index (288.15 K, x1 = 0.75): 1.49936 ± 0.00034
refractive index (288.15 K, x1 = 0.8): 1.50381 ± 0.00034
refractive index (288.15 K, x1 = 0.85): 1.50803 ± 0.00034
refractive index (288.15 K, x1 = 0.9): 1.512 ± 0.00035
refractive index (288.15 K, x1 = 0.95): 1.51569 ± 0.00035
refractive index (288.15 K, x1 = 1): 1.51915 ± 0.00035
refractive index (298.18 K, x1 = 0.05): 1.37591 ± 0.00031
refractive index (298.18 K, x1 = 0.1): 1.39068 ± 0.00032
refractive index (298.18 K, x1 = 0.15): 1.40383 ± 0.00032
refractive index (298.18 K, x1 = 0.2): 1.41549 ± 0.00032
refractive index (298.18 K, x1 = 0.25): 1.42606 ± 0.00032
refractive index (298.18 K, x1 = 0.3): 1.4357 ± 0.00032
refractive index (298.18 K, x1 = 0.35): 1.44448 ± 0.00033
refractive index (298.18 K, x1 = 0.4): 1.45255 ± 0.00033
refractive index (298.18 K, x1 = 0.45): 1.46 ± 0.00033
refractive index (298.18 K, x1 = 0.5): 1.46691 ± 0.00033
refractive index (298.18 K, x1 = 0.55): 1.47332 ± 0.00033
refractive index (298.18 K, x1 = 0.6): 1.4793 ± 0.00033
refractive index (298.18 K, x1 = 0.65): 1.48487 ± 0.00033
refractive index (298.18 K, x1 = 0.7): 1.49 ± 0.00034
refractive index (298.18 K, x1 = 0.75): 1.49482 ± 0.00034
refractive index (298.18 K, x1 = 0.8): 1.49926 ± 0.00034
refractive index (298.18 K, x1 = 0.85): 1.50347 ± 0.00034
refractive index (298.18 K, x1 = 0.9): 1.50743 ± 0.00035
refractive index (298.18 K, x1 = 0.95): 1.51112 ± 0.00035
refractive index (298.18 K, x1 = 1): 1.51467 ± 0.00035
refractive index (308.15 K, x1 = 0.05): 1.37154 ± 0.00031
refractive index (308.15 K, x1 = 0.1): 1.38617 ± 0.00032
refractive index (308.15 K, x1 = 0.15): 1.39926 ± 0.00032
refractive index (308.15 K, x1 = 0.2): 1.41088 ± 0.00032
refractive index (308.15 K, x1 = 0.25): 1.42138 ± 0.00032
refractive index (308.15 K, x1 = 0.3): 1.43104 ± 0.00032
refractive index (308.15 K, x1 = 0.35): 1.4398 ± 0.00033
refractive index (308.15 K, x1 = 0.4): 1.44784 ± 0.00033
refractive index (308.15 K, x1 = 0.45): 1.45528 ± 0.00033
refractive index (308.15 K, x1 = 0.5): 1.4622 ± 0.00033
refractive index (308.15 K, x1 = 0.55): 1.46859 ± 0.00033
refractive index (308.15 K, x1 = 0.6): 1.47455 ± 0.00033
refractive index (308.15 K, x1 = 0.65): 1.4801 ± 0.00033
refractive index (308.15 K, x1 = 0.7): 1.4852 ± 0.00034
refractive index (308.15 K, x1 = 0.75): 1.49002 ± 0.00034
refractive index (308.15 K, x1 = 0.8): 1.49445 ± 0.00034
refractive index (308.15 K, x1 = 0.85): 1.49866 ± 0.00034
refractive index (308.15 K, x1 = 0.9): 1.5026 ± 0.00035
refractive index (308.15 K, x1 = 0.95): 1.50631 ± 0.00035
refractive index (308.15 K, x1 = 1): 1.50993 ± 0.00035
refractive index (318.15 K, x1 = 0.05): 1.36738 ± 0.00031
refractive index (318.15 K, x1 = 0.1): 1.38191 ± 0.00032
refractive index (318.15 K, x1 = 0.15): 1.39488 ± 0.00032
refractive index (318.15 K, x1 = 0.2): 1.40643 ± 0.00032
refractive index (318.15 K, x1 = 0.25): 1.41686 ± 0.00032
refractive index (318.15 K, x1 = 0.3): 1.42643 ± 0.00032
refractive index (318.15 K, x1 = 0.35): 1.43518 ± 0.00033
refractive index (318.15 K, x1 = 0.4): 1.44318 ± 0.00033
refractive index (318.15 K, x1 = 0.45): 1.45059 ± 0.00033
refractive index (318.15 K, x1 = 0.5): 1.45746 ± 0.00033
refractive index (318.15 K, x1 = 0.55): 1.46384 ± 0.00033
refractive index (318.15 K, x1 = 0.6): 1.46979 ± 0.00033
refractive index (318.15 K, x1 = 0.65): 1.47528 ± 0.00033
refractive index (318.15 K, x1 = 0.7): 1.48039 ± 0.00034
refractive index (318.15 K, x1 = 0.75): 1.48515 ± 0.00034
refractive index (318.15 K, x1 = 0.8): 1.48961 ± 0.00034
refractive index (318.15 K, x1 = 0.85): 1.49378 ± 0.00034
refractive index (318.15 K, x1 = 0.9): 1.49773 ± 0.00035
refractive index (318.15 K, x1 = 0.95): 1.50144 ± 0.00035
refractive index (318.15 K, x1 = 1): 1.50514 ± 0.00035
